Among the data in ChEMBL document CHEMBL1158207, “Mauritiamine, a New Antifouling Oroidin Dimer from the Marine Sponge Agelas mauritiana” (1996) are Activity and zone of inhibition values, retold here.

Assay [1] deals with Ciona savignyi. In words: Promotion of metamorphosis in ascidian Ciona savignyi larvae at 2.5 ug/ml after 10 hrs. It is filed as functional, organism-based.
For assay [2], the system named is Microbacterium maritypicum. Description: Antimicrobial activity against Flavobacterium marinotypicum ATCC 19260 at 10 ug/disk after 24 hrs by paper disk method. The assay is classed as functional. The conditions noted are these: ATCC 19260, 24 h, read-out: IZ.

Structures are written as SMILES. Active and inactive are the calls of the source. The calls are words filed in the database; no cut-off is given here.

As for `NC(=O)c1cc(Br)c(Br)[nH]1`, the outcome in assay [1] was Active.

On to `NC1=NC(=O)C(/C=C/CNC(=O)c2cc(Br)c(Br)[nH]2)(c2nc(N)[nH]c2/C=C/CNC(=O)c2cc(Br)c(Br)[nH]2)N1` (stereo not drawn) [MAURITIAMINE], for which the zone of inhibition at 10 µg/disc in assay [2] was 10 mm.

Regarding `Nc1ncc(/C=C/CNC(=O)c2cc(Br)c(Br)[nH]2)[nH]1` [OROIDIN], in assay [2], the zone of inhibition at 10 µg/disc is 15 mm.
